Measurements from ChEMBL document CHEMBL1201862, “PubChem BioAssay data set” (2004).
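How tested: cells in 96-well plates exposed to compound for 48 hours at five concentrations. GI50: concentration for 50% inhibition of growth.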 Activity calls are given as the source filed them. Rule as the data show it: active = GI50 up to about 1.1 µM and inactive = higher.

Tests used:
Experiment in all cases: NCI-60 cell line screen, 48 h
HCC 2998 = tested on: HCC 2998
NCI-H226 = tested on: NCI-H226
OVCAR-3 = tested on: OVCAR-3
LOX IMVI = tested on: LOX IMVI
U-251 = tested on: U-251
SF-295 = tested on: SF-295
SN12C = tested on: SN12C
EKVX = tested on: EKVX
SK-MEL-5 = tested on: SK-MEL-5
MDA-MB-435 = tested on: MDA-MB-435
MDA-N = tested on: MDA-N
CAKI-1 = tested on: CAKI-1
UACC-257 = tested on: UACC-257
SF-539 = tested on: SF-539
SNB-75 = tested on: SNB-75
OVCAR-4 = tested on: OVCAR-4
SW-620 = tested on: SW-620
NCI/ADR-RES = tested on: NCI/ADR-RES
BT-549 = tested on: BT-549
KM-20L2 = tested on: KM-20L2

Measured: GI50

N=C(N)/N=C(\N)Nc1ccc(C(=O)O)cc1
inactive: HCC 2998 > 100 µM | NCI-H226 > 100 µM | OVCAR-3 > 100 µM | LOX IMVI > 100 µM | U-251 > 100 µM | SF-295 > 100 µM | SN12C 43.1 µM | EKVX > 100 µM | SK-MEL-5 > 100 µM | MDA-MB-435 > 100 µM | MDA-N > 100 µM | CAKI-1 > 100 µM | UACC-257 > 100 µM | SF-539 > 100 µM | SNB-75 > 100 µM | OVCAR-4 > 100 µM | SW-620 > 100 µM | NCI/ADR-RES > 100 µM | BT-549 > 100 µM

Cn1c(N)c(-c2c3ccccc3nc3ccccc23)c(=O)n(C)c1=O
inactive: OVCAR-3 > 100 µM | U-251 > 100 µM | SF-295 > 100 µM | SN12C > 100 µM | EKVX > 100 µM | SK-MEL-5 > 100 µM | CAKI-1 > 100 µM | SF-539 > 100 µM | OVCAR-4 > 100 µM | SW-620 > 100 µM | KM-20L2 > 100 µM

C=C([C@@]1(O)C[C@H]2[C@H](CCC2(OC)OC)[C@@H]2c3ccccc3O[C@@H]21)[Si](C)(C)C
inactive: HCC 2998 > 100 µM | NCI-H226 > 100 µM | OVCAR-3 > 100 µM | LOX IMVI > 100 µM | U-251 > 100 µM | SF-295 > 100 µM | SN12C > 100 µM | EKVX > 100 µM | SK-MEL-5 > 100 µM | MDA-MB-435 > 100 µM | MDA-N > 100 µM | CAKI-1 > 100 µM | UACC-257 > 100 µM | SF-539 > 100 µM | SNB-75 > 100 µM | OVCAR-4 > 100 µM | SW-620 > 100 µM | NCI/ADR-RES > 100 µM | BT-549 > 100 µM

O=C1CSC(c2ccccc2)N1c1ccc(-n2c(-c3ccccc3)nc3ccccc3c2=O)cc1 (stereo not drawn)
inactive: HCC 2998 > 100 µM | NCI-H226 > 77.3 µM | OVCAR-3 64.1 µM | LOX IMVI 50.5 µM | U-251 59.8 µM | SF-295 63.2 µM | SN12C 99.3 µM | EKVX > 75.7 µM | SK-MEL-5 47.4 µM | MDA-MB-435 63.4 µM | MDA-N > 79.1 µM | CAKI-1 > 100 µM | UACC-257 > 100 µM | SF-539 65.2 µM | SNB-75 > 100 µM | OVCAR-4 42 µM | SW-620 > 100 µM | NCI/ADR-RES 64.6 µM | BT-549 > 80.7 µM

O=[N+]([O-])c1ccc(C2ON=C(c3ccccc3)N2C23CC4CC(CC(C4)C2)C3)cc1 (stereo not drawn)
inactive: HCC 2998 > 10 µM | NCI-H226 > 10 µM | OVCAR-3 > 10 µM | LOX IMVI > 10 µM | U-251 6.35 µM | SF-295 > 10 µM | SN12C > 10 µM | EKVX > 10 µM | SK-MEL-5 > 10 µM | MDA-MB-435 > 10 µM | MDA-N > 10 µM | CAKI-1 > 10 µM | UACC-257 > 10 µM | SF-539 2.89 µM | SNB-75 5.6 µM | OVCAR-4 > 10 µM | SW-620 > 10 µM | NCI/ADR-RES > 10 µM | BT-549 > 10 µM

C#CCN(C)C(=O)N(CC#C)N=O
inactive: OVCAR-3 > 100 µM | LOX IMVI > 100 µM | U-251 54.2 µM | SF-295 > 100 µM | SN12C > 100 µM | EKVX > 100 µM | SK-MEL-5 > 100 µM | UACC-257 > 100 µM | SF-539 > 100 µM | SNB-75 > 100 µM | OVCAR-4 > 100 µM | SW-620 > 100 µM | KM-20L2 > 100 µM

O=S1(=O)c2ccccc2C(=NO)c2ccccc21
inactive: HCC 2998 > 100 µM | NCI-H226 > 100 µM | OVCAR-3 39.7 µM | LOX IMVI 80.2 µM | U-251 > 100 µM | SF-295 > 100 µM | SN12C 92.9 µM | EKVX 35.3 µM | SK-MEL-5 70.3 µM | MDA-MB-435 > 100 µM | MDA-N > 100 µM | CAKI-1 > 100 µM | UACC-257 > 100 µM | SF-539 > 100 µM | SNB-75 > 100 µM | OVCAR-4 > 100 µM | SW-620 > 100 µM | NCI/ADR-RES 57.3 µM | BT-549 59.2 µM

C=Cc1nc2nnc(CCCCCCCCc3nnc4nc(C=C)[nH]n34)n2[nH]1
inactive: HCC 2998 75.3 µM | NCI-H226 > 100 µM | OVCAR-3 > 100 µM | LOX IMVI 93.5 µM | U-251 30.7 µM | SF-295 62.5 µM | SN12C > 100 µM | EKVX 61.5 µM | SK-MEL-5 41.6 µM | MDA-MB-435 > 100 µM | MDA-N > 100 µM | CAKI-1 > 100 µM | UACC-257 31.4 µM | SF-539 > 100 µM | SNB-75 > 100 µM | OVCAR-4 83.9 µM | SW-620 > 100 µM | NCI/ADR-RES 63.1 µM | BT-549 > 100 µM
